According to ChEMBL document CHEMBL4138084, “Structure-activity relationship study of the tumour-targeting peptide A20FMDV2 via modification of Lys16, Leu13, and N- and/or C-terminal functionality” (Eur J Med Chem, 2017):
Active and inactive are the calls of the source. No cut-off for these calls is given here.

Key:
[1] = Drug uptake in human A375PPuro cells at 1000 nM after 15 mins by flow cytometric analysis; assay type: ADME, cell-based; conditions: 0.25 h, 1 µM
[2] = biological target: Integrin alpha-V/beta-5 (Homo sapiens) (UniProt P06756+P18084); experiment: Binding affinity alphav/beta5 integrin in human A375PPuro cells at 1000 nM after 15 mins by flow cytometric analysis; assay type: cell-based
[3] = biological target: Integrin alpha-V/beta-8 (Homo sapiens) (UniProt P06756+P26012); experiment: Binding affinity alphav/beta8 integrin in human A375PPuro cells at 1000 nM after 15 mins by flow cytometric analysis; assay type: cell-based
[4] = test system: Integrin alpha-V/beta-1 (Homo sapiens); experiment: Binding affinity alphav/beta1 integrin in human A375PPuro cells at 1000 nM after 15 mins by flow cytometric analysis

Drug uptake [1]: Not Active
Activity [2]: inactive
Activity [3]: inactive
Activity [4]: inactive
SMILES: CC(C)C[C@H](NC(=O)[C@H](CC(=O)O)NC(=O)CNC(=O)[C@H](CCCNC(=N)N)NC(=O)[C@H](CC(C)C)NC(=O)[C@H](CC(N)=O)NC(=O)[C@@H]1CCCN1C(=O)[C@@H](NC(=O)[C@H](CCCCNC(=O)CCCC[C@@H]1SC[C@@H]2NC(=O)N[C@@H]21)NC(=O)[C@H](CC(N)=O)NC(=O)CN1CCN(CC(=O)O)CCN(CC(=O)O)CCN(CC(=O)O)CC1)C(C)C)C(=O)N[C@@H](CCC(N)=O)C(=O)N[C@H](C(=O)N[C@@H](CC(C)C)C(=O)N[C@@H](C)C(=O)N[C@@H](CCC(N)=O)C(=O)N[C@@H](CCCCN)C(=O)N[C@H](C(=O)N[C@@H](C)C(=O)N[C@@H](CCCNC(=N)N)C(=O)N[C@H](C(=O)O)[C@@H](C)O)C(C)C)C(C)C
